Data from patent US20250325534A1, “MICROBIOCIDAL TETRAHYDROISOQUINOLINE DERIVATIVES” (SYNGENTA CROP PROTECTION AG, priority 2021, published 2025).

How the values were obtained:
Type in all cases: cell-based
[1] = test system: Mycosphaerella graminicola; experiment: Mycosphaerella graminicola (Septoria tritici) / liquid culture (Septoria blotch); conditions: Zymoseptoria tritici, 96 h, photometrically 4-5 days after application, read-out: control of Mycosphaerella graminicola
Method in brief: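 Growth inhibition measured by photometry 4-5 days post application, at 24° C incubation. Test compound supplied as DMSO solution; fungal conidia from cryostorage suspended directly in potato dextrose broth as inoculum.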

Monographella nivalis = Monographella nivalis (Microdochium nivale) / liquid culture (foot rot cereals); conditions: 96 h, photometrically 4-5 days after application, read-out: control of Monographella nivalis
Description: (§1) Example B10: Monographella nivalis (Microdochium nivale)/Liquid Culture (Foot Rot Cereals) Conidia of the fungus from cryogenic storage are directly mixed into a nutrient broth (potato dextrose broth). After placing a DMSO solution of test compound into a microtiter plate (96-well format), the nutrient broth containing the fungal spores is added. The test plates are incubated at 24° C. and the inhibition of growth is determined photometrically 4-5 days after application.

Glomerella lagenarium = Glomerella lagenarium (Colletotrichum lagenarium) / liquid culture (anthracnose); conditions: Colletotrichum orbiculare, 72 h, photometrically 3-4 days after application, read-out: control of Glomerella lagenarium
Description: as §1, with “B5: Glomerella Lagenarium (Colletotrichum Lagenarium)/Liquid” for “B10: Monographella nivalis (Microdochium nivale)/Liquid”, “(Anthracnose)” for “(Foot Rot Cereals)”, “measured” for “determined”, “3-4” for “4-5”

Mycosphaerella arachidis = Mycosphaerella arachidis (Cercospora arachidicola) / liquid culture (early leaf spot); conditions: 96 h, photometrically 4-5 days after application, read-out: control of Mycosphaerella arachidis
Description: as §1, with “B11: Mycosphaerella arachidis (Cercospora arachidicola)/Liquid” for “B10: Monographella nivalis (Microdochium nivale)/Liquid”, “(Early Leaf Spot)” for “(Foot Rot Cereals)”

| SMILES | inhibition of growth at 20 ppm [1] [%] | inhibition of growth at 20 ppm (Monographella nivalis) [%] | inhibition of growth at 20 ppm (Glomerella lagenarium) [%] | inhibition of growth at 20 ppm (Mycosphaerella arachidis) [%] |
| --- | --- | --- | --- | --- |
| Cn1cc(C2CN(C(=O)c3cc(-c4ccc(F)cc4F)on3)Cc3cc(C(F)(F)F)ccc32)cn1 (stereo not drawn) [Compound P-111, [5-(2,4-difluorophenyl)isoxazol-3-yl]-[4-(1-methylpyrazol-4-yl)-7-(trifluoromethyl)-3,4-dihydro-1H-isoquinolin-2-yl]methanone] | ≥ 80 | ≥ 80 | ≥ 80 |  |
| Cc1ccccc1-c1cc(C(=O)N2Cc3ccccc3C(c3cnn(C)c3)C2)no1 (stereo not drawn) [Compound P-169, [4-(1-methylpyrazol-4-yl)-3,4-dihydro-1H-isoquinolin-2-yl]-[5-(o-tolyl)isoxazol-3-yl]methanone] | ≥ 80 | ≥ 80 | ≥ 80 |  |
| Cn1cc(C2CN(C(=O)c3cc(-c4cccc(Cl)c4)on3)Cc3ccccc32)cn1 (stereo not drawn) [Compound P-190, [5-(3-chlorophenyl)-isoxazol-3-yl]-[4-(1-methylpyrazol-4-yl)-3,4-dihydro-1H-isoquinolin-2-yl]methanone] | ≥ 80 | ≥ 80 | ≥ 80 |  |
| Cn1cc(C2CN(C(=O)c3cc(-c4cc(F)ccc4F)on3)Cc3ccccc32)cn1 (stereo not drawn) [Compound P-149, [5-(2,5-difluorophenyl)isoxazol-3-yl]-[4-(1-methylpyrazol-4-yl)-3,4-dihydro-1H-isoquinolin-2-yl]methanone] | ≥ 80 | ≥ 80 | ≥ 80 |  |
| COc1ccc2c(c1)CN(C(=O)c1cc(-c3ccccc3)on1)CC2c1cnn(C)c1 (stereo not drawn) [Compound P-50, [7-methoxy-4-(1-methylpyrazol-4-yl)-3,4-dihydro-1H-isoquinolin-2-yl]-(5-phenylisoxazol-3-yl)methanone] | ≥ 80 |  | ≥ 80 | ≥ 80 |
| Cn1cc(C2CN(C(=O)c3cc(-c4ccc(F)cc4F)on3)Cc3ccc(Cl)cc32)cn1 (stereo not drawn) [Compound P-58, [6-chloro-4-(1-methylpyrazol-4-yl)-3,4-dihydro-1H-isoquinolin-2-yl]-[5-(2,4-difluorophenyl)isoxazol-3-yl]methanone] | ≥ 80 | ≥ 80 | ≥ 80 |  |
| Cn1cc(C2CN(C(=O)c3ccc(-c4ccc(F)cc4)o3)Cc3ccccc32)cn1 (stereo not drawn) [Compound P-97, [5-(4-fluorophenyl)-2-furyl]-[4-(1-methylpyrazol-4-yl)-3,4-dihydro-1H-isoquinolin-2-yl]methanone] |  |  | ≥ 80 |  |
| Cn1cc(C2CN(C(=O)c3ccc(-c4ccc(C(F)(F)F)cc4)o3)Cc3ccccc32)cn1 (stereo not drawn) [Compound P-76, [4-(1-methylpyrazol-4-yl)-3,4-dihydro-1H-isoquinolin-2-yl]-[5-[4-(trifluoromethyl)phenyl]-2-furyl]methanone] |  |  | ≥ 80 |  |
| Cc1cc(-c2cc(C(=O)N3Cc4ccccc4C(c4cnn(C)c4C)C3)no2)n(C)n1 (stereo not drawn) [Compound P-226] | ≥ 80 |  | ≥ 80 |  |
| Cc1cccc(-c2cc(C(=O)N3Cc4ccccc4C(c4cnn(C)c4)C3)no2)c1 (stereo not drawn) [Compound P-187, [4-(1-methylpyrazol-4-yl)-3,4-dihydro-1H-isoquinolin-2-yl]-[5-(m-tolyl)isoxazol-3-yl]methanone] | ≥ 80 |  | ≥ 80 |  |
| Cn1cc(C2CN(C(=O)c3cc(-c4ccccc4)on3)Cc3ccc(F)cc32)cn1 (stereo not drawn) [Compound P-139, [6-fluoro-4-(1-methylpyrazol-4-yl)-3,4-dihydro-1H-isoquinolin-2-yl]-(5-phenylisoxazol-3-yl)methanone] | ≥ 80 |  | ≥ 80 | ≥ 80 |
| Cc1c(C2CN(C(=O)c3cc(-c4cccn4C)on3)Cc3ccccc32)cnn1C (stereo not drawn) [Compound P-231, [4-(1,5-dimethylpyrazol-4-yl)-3,4-dihydro-1H-isoquinolin-2-yl]-[5-(1-methylpyrrol-2-yl)isoxazol-3-yl]methanone] | ≥ 80 |  | ≥ 80 | ≥ 80 |
